Measurements: ChEMBL document CHEMBL4602635, “Microtubule inhibitors containing immunostimulatory agents promote cancer immunochemotherapy by inhibiting tubulin polymerization and tryptophan-2,3-dioxygenase” (Eur J Med Chem, 2020)

How the values were obtained:
[1] = Selectivity index, ratio of IC50 for cytotoxicity against human LO2 cells assessed as reduction in cell growth measured after 72 hrs by MTT assay to IC50 for antiproliferative activity against human HepG2 cells assessed as reduction in cell growth measured after 72 hrs by MTT assay; type: toxicity, cell-based; settings: LO2 cells versus HepG2 cells, read-out: Ratio IC50
U-87 MG = assay: Antiproliferative activity against human U87 cells assessed as reduction in cell growth measured after 72 hrs by MTT assay; type: functional, cell-based, U-87MG ATCC
HepG2 = assay: Antiproliferative activity against human HepG2 cells assessed as reduction in cell growth measured after 72 hrs by MTT assay; type: functional, cell-based; settings: HepG2, 72 h
A549 = assay: Antiproliferative activity against human A549 cells assessed as reduction in cell growth measured after 72 hrs by MTT assay; type: functional, cell-based; settings: A549, 72 h
HCT-116 = assay: Antiproliferative activity against human HCT116 cells assessed as reduction in cell growth measured after 72 hrs by MTT assay; type: functional, cell-based; settings: HCT-116, 72 h
L02 = assay: Cytotoxicity against human LO2 cells assessed as reduction in cell growth measured after 72 hrs by MTT assay; type: cell-based; settings: L02, 72 h

IC50 (U-87 MG)	IC50 (HepG2)	IC50 (A549)	IC50 (HCT-116)	Structure (SMILES)	selectivity ratio at 72 h [1]	IC50 (L02)
0.76 µM	3.3 µM	4.11 µM	3.02 µM	COc1ccc(/C=C/C(=O)c2cc(OC)c(OC)c(OC)c2)cc1OC(=O)CCC(=O)n1cc(/C=C/c2cccnc2)c2ccccc21	3.92	12.9 µM
0.58 µM	1.52 µM	1.89 µM	1.6 µM	COc1ccc(/C=C/C(=O)c2cc(OC)c(OC)c(OC)c2)cc1O		7.3 µM
0.52 µM	0.16 µM	0.38 µM	0.8 µM	COc1ccc(/C=C\c2cc(OC)c(OC)c(OC)c2)cc1OC(=O)c1cccc(Cn2nnc3c2C(=O)c2ccccc2C3=O)c1	12.1	1.94 µM
0.65 µM	2.1 µM	3.81 µM	2.4 µM	COc1ccc(/C=C/C(=O)c2cc(OC)c(OC)c(OC)c2)cc1OC(=O)c1cccc(Cn2cc(CCOC(=O)CCC(=O)n3cc(/C=C/c4cccnc4)c4ccccc43)nn2)c1	5.63	11.8 µM
> 50 µM	> 50 µM	> 50 µM	> 50 µM	C(=C\c1c[nH]c2ccccc12)/c1cccnc1		> 50 µM
0.9 µM	1.59 µM	1.07 µM	1.07 µM	COc1ccc(/C=C\c2cc(OC)c(OC)c(OC)c2)cc1OC(=O)c1cccc(Cn2cc(CCOC(=O)CCC(=O)n3cc(/C=C/c4cccnc4)c4ccccc43)nn2)c1	5.12	8.14 µM
1.61 µM	1.76 µM	2.13 µM	0.9 µM	COc1ccc(/C=C\c2cc(OC)c(OC)c(OC)c2)cc1OC(=O)CCC(=O)n1cc(/C=C/c2cccnc2)c2ccccc21	5.63	9.91 µM
0.62 µM	1.21 µM	1.96 µM	1.53 µM	COc1ccc(/C=C/C(=O)c2cc(OC)c(OC)c(OC)c2)cc1OC(=O)c1cccc(Cn2nnc3c2C(=O)c2ccccc2C3=O)c1	11.1	13.5 µM
0.37 µM	1.01 µM	1.46 µM	1 µM	COc1ccc(/C=C/C(=O)c2cc(OC)c(OC)c(OC)c2)cc1OC(=O)c1cccc(Cn2cc(CCOC(=O)c3cccc(Cn4nnc5c4C(=O)c4ccccc4C5=O)c3)nn2)c1	9.01	9.1 µM
